Laboratory results reported in US9023852B2, “1, 2, 4-thiadiazol-5-ylpiperazine derivatives useful in the treatment of neurodegenerative diseases” (Remynd NV, priority 2011, dated 2015).

Test system: M17—3TAU(P301L) cells
Assay: Neuroblastoma tauopathy model: inhibition of TAU-induced cytotoxicity (LDH)
Format: cell-based
Conditions: Homo sapiens, 168 h; inhibition of TAU-induced toxicity (LDH), 7 days differentiation with retinoic acid
Text: A TAU expression plasmid was constructed by sub-cloning the cDNA encoding for human TAU-P301L protein, wherein proline at position 301 is substituted by a leucine residue, into mammalian expression vector pcDNA3.1 resulting in the plasmid pcDNA3.1-TAUP301L. Plasmids pcDNA3.1 and pcDNA3.1-TAU P301L were transfected into human neuroblastoma cells (BE-M17; ATCC No. CRL-2267™) using lipofectamine reagent and subsequently, independent clonal cell lines with the plasmids stably integrated into the genome were selected by antibiotic resistance selection (Geneticin (G418)), resulting in cell lines M17.pcDNA3 and M17—3TAUP301L. Expression of the TAUP301L gene in the M17—3TAUP301L cells was confirmed by Western blot analysis.
Differentiation of the cells with RA leads to phosphorylation and subsequent aggregation of TAU, inducing a tauopathy in these cells. Cytotoxicity of cells was measured by quantification of lactate dehydrogenase (LDH) levels. In dead cells LDH is leaked out of the cells into the medium due to a loss of plasma-membrane integrity.
Briefly, 3 days preceding the experiment pre-cultures of M17.pcDNA3 and M17—3TAU(P301L) cells were prepared, starting from a stock culture, at a density of 50.000-100.000 cells/cm2 in detection medium (Optimem Reduced Serum without phenol red (Gibco, Cat. 31985-047) supplemented with 1% fetal calf serum (FCS), 1 mM sodium pyruvate, 1× non-essential amino acids (NEAA), 500 μg/ml G418 and 0.5× antibiotic/antimycotic (ABAM)). At the day of the experiment these precultures were diluted to ˜0, 1.106 cells/ml in detection medium without FCS and 60 μL of this suspension is dispensed per well into a 96-well microtiter plate. After 3 hours of incubation at 37° C./5% CO2 an equal volume of detection medium containing 2.5 μM RA was added and subsequently incubated for 7 days at 37° C./5% CO2. After 7 days, LDH activity was determined using the Promega Cytotox 96 Non-Radioactive cytotoxicity assay (Cat. G1780), according the manufacturer's instructions. Cytotoxicity is measured as the ratio of LDH increase in the supernatant divided by the LDH increase in the total cell suspension (sum of the LDH measured in cells and supernatant).
The M17—3TAU(P301L) cell line makes it possible to assess the ability of novel compounds to inhibit TAU-induced cytotoxicity. […] Compounds were tested for their ability to hamper TAU-induced toxicity at different concentrations, ranging from low non-effective concentrations to high potent concentrations. Afterwards, the dose-dependent inhibition curve was used to calculate their EC50 (Table 1).

First: FC(F)(F)c1cccc(CCN2CCN(c3nc(-c4ccc(Cl)cc4)ns3)CC2)c1 [Example 140, 1-[3-(4-Chloro-phenyl)-[1,2,4]thiadiazol-5-yl]-4-[2-(3-trifluoromethyl-phenyl)-ethyl]-piperazine]
Second: FC(F)(F)c1ccc(CCN2CCN(c3nc(-c4ccc(Cl)cc4)ns3)CC2)cc1 [Example 144, 1-[3-(4-Chloro-phenyl)-[1,2,4]thiadiazol-5-yl]-4-[2-(4-trifluoromethyl-phenyl)-ethyl]-piperazine]
The EC50 of the first is 8.3-fold lower: 0.0726 µM for the first, 0.602 µM for the second. The first is the more potent here.

Going from `Cc1cc(-c2nsc(N3CCN(CCc4ccccc4)CC3)n2)cnn1` [Example 173, 3-(6-methylpyridazin-4-yl)-5-(4-phenethylpiperazin-1-yl)-1,2,4-thiadiazole] to `Cc1cc(-c2nsc(N3CCN(CCc4ccc(F)cc4)CC3)n2)cnn1` [Example 174, 5-(4-(4-fluorophenethyl)piperazin-1-yl)-3-(6-methylpyridazin-4-yl)-1,2,4-thiadiazole], the EC50 rises from 0.0029 µM to 0.0126 µM (4.3-fold). The first is the more potent here.

Going from `COc1cccc(CCN2CCN(c3nc(-c4ccccc4Cl)ns3)CC2)c1` [Example 57, 1-[3-(2-Chloro-phenyl)-[1,2,4]thiadiazol-5-yl]-4-[2-(3-methoxy-phenyl)-ethyl]-piperazine] to `COc1ccc(CCN2CCN(c3nc(-c4cccc(F)c4)ns3)CC2)cc1` [Example 84, 1-[3-(3-Fluoro-phenyl)-[1,2,4]thiadiazol-5-yl]-4-[2-(4-methoxy-phenyl)-ethyl]-piperazine], the EC50 falls from 0.0145 µM to 0.0007 µM (21-fold).

`COc1ccc(CCN2CCN(c3nc(-c4ccc(OC(F)(F)F)cc4)ns3)CC2)cc1` [Example 37, 1-[2-(4-Methoxy-phenyl)-ethyl]-4-[3-(4-trifluoromethoxy-phenyl)-[1,2,4]thiadiazol-5-yl]-piperazine] and `COc1ccc(CCN2CCN(c3nc(-c4ccncc4)ns3)CC2)cc1` [Example 43, 1-[2-(4-Methoxy-phenyl)-ethyl]-4-(3-pyridin-4-yl-[1,2,4]thiadiazol-5-yl)-piperazine] are within 1.5-fold of each other in EC50: 0.0029 µM for the first, 0.0033 µM for the second.

Compared with `COc1ccc(C(=O)CN2CCN(c3nc(-c4ccc(Cl)cc4)ns3)CC2)cc1` [Example 53, 2-{4-[3-(4-Chloro-phenyl)-[1,2,4]thiadiazol-5-yl]-piperazin-1-yl}-1-(4-methoxy-phenyl)-ethanone], `C=C(CN1CCN(c2nc(-c3ccc(Cl)cc3)ns2)CC1)c1ccc(OC)cc1` [Example 59, 1-[3-(4-Chloro-phenyl)-[1,2,4]thiadiazol-5-yl]-4-[2-(4-methoxy-phenyl)-allyl]-piperazine] is 6-fold higher in EC50: 0.0126 µM for the first, 0.075 µM for the second.

First: Fc1ccc(CCN2CCN(c3nc(-c4cc(Cl)ccn4)ns3)CC2)cc1 [Example 122, 1-[3-(4-Chloro-pyridin-2-yl)-[1,2,4]thiadiazol-5-yl]-4-[2-(4-fluoro-phenyl)-ethyl]-piperazine]
Second: Clc1ccc(CCN2CCN(c3nc(-c4ccc(Cl)cc4)ns3)CC2)cc1 [Example 25, 1-[2-(4-Chloro-phenyl)-ethyl]-4-[3-(4-chloro-phenyl)-[1,2,4]thiadiazol-5-yl]-piperazine]
The EC50 of the first is 5.5-fold higher: 0.0425 µM for the first, 0.0077 µM for the second.

`COc1ccc(CCN2CCN(c3nc(-c4ccc(Cl)cc4)ns3)CC2)cn1` [Example 79, 1-[3-(4-Chloro-phenyl)-[1,2,4]thiadiazol-5-yl]-4-[2-(6-methoxy-pyridin-3-yl)-ethyl]-piperazine] and `COc1ccc(CCN2CCN(c3nc(-c4ccc(F)c(F)c4)ns3)CC2)cn1` [Example 105, 1-[3-(3,4-Difluoro-phenyl)-[1,2,4]thiadiazol-5-yl]-4-[2-(6-methoxy-pyridin-3-yl)-ethyl]-piperazine] are within 1.5-fold of each other in EC50: 0.0028 µM for the first, 0.0021 µM for the second.

`COc1ccc(CCN2CCN(c3nc(-c4ccc(F)cc4OC)ns3)CC2)cc1` [Example 67, 1-[3-(4-Fluoro-2-methoxy-phenyl)-[1,2,4]thiadiazol-5-yl]-4-[2-(4-methoxy-phenyl)-ethyl]-piperazine] and `COc1ccc(CCN2CCN(c3nc(-c4cnnc(C)c4)ns3)CC2)cc1` [Example 177, 5-(4-(4-methoxyphenethyl)piperazin-1-yl)-3-(6-methylpyridazin-4-yl)-1,2,4-thiadiazole] are the same in EC50: 0.001 µM for the first, 0.001 µM for the second.

First: Fc1cccc(-c2nsc(N3CCN(CCC4CCCCC4)CC3)n2)c1 [Example 154, 1-(2-Cyclohexyl-ethyl)-4-[3-(3-fluoro-phenyl)[1,2,4]thiadiazol-5-yl]-piperazine]
Second: Clc1ccc(-c2nsc(N3CCN(CCC4CCOCC4)CC3)n2)cc1 [Example 167, 3-(4-chlorophenyl)-5-(4-(2-(tetrahydro-2H-pyran-4-yl)ethyl)piperazin-1-yl)-1,2,4-thiadiazole]
The EC50 of the first is 2.9-fold higher: 0.017 µM for the first, 0.0059 µM for the second. The second is the more potent here.

`Cc1ccccc1CN1CCN(c2nc(-c3ccc(F)c(F)c3)ns2)CC1` [Example 107, 1-[3-(3,4-Difluoro-phenyl)-[1,2,4]thiadiazol-5-yl]-4-(2-methyl-benzyl)-piperazine] and `Cc1ccccc1CN1CCN(c2nc(-c3ccc(Cl)cn3)ns2)CC1` [Example 129, 1-[3-(5-Chloro-pyridin-2-yl)-[1,2,4]thiadiazol-5-yl]-4-(2-methyl-benzyl)-piperazine] are within 1.5-fold of each other in EC50: 0.0722 µM for the first, 0.0923 µM for the second.

Going from `N#Cc1cccc(-c2nsc(N3CCN(CCc4ccc(F)c(F)c4)CC3)n2)c1` [Example 137, 3-(5-{4-[2-(3,4-Difluoro-phenyl)-ethyl]-piperazin-1-yl}-[1,2,4]thiadiazol-3-yl)-benzonitrile] to `COc1ccc(CCN2CCN(c3nc(-c4cccc(C#N)c4)ns3)CC2)cn1` [Example 115, 3-(5-{4-[2-(6-Methoxy-pyridin-3-yl)-ethyl]-piperazin-1-yl}-[1,2,4]thiadiazol-3-yl)-benzonitrile], the EC50 falls from 0.0062 µM to 0.0023 µM (2.7-fold).

First: Cc1ccc(-c2nsc(N3CCN(CCc4ccccc4)CC3)n2)cc1 [Example 4, 1-Phenethyl-4-(3-p-tolyl-[1,2,4]thiadiazol-5-yl)-piperazine]
Second: N#Cc1ccc(-c2nsc(N3CCN(CCc4ccc(Cl)cc4)CC3)n2)cc1 [Example 112, 4-(5-{4-[2-(4-Chloro-phenyl)-ethyl]piperazin-1-yl}-[1,2,4]thiadiazol-3-yl)-benzonitrile]
The EC50 of the first is 2-fold higher: 0.115 µM for the first, 0.0567 µM for the second.

Going from `COc1cc(CCN2CCN(c3nc(-c4cnc(C)nc4)ns3)CC2)ccn1` [Example 183, 5-(4-(2-(2-methoxypyridin-4-yl)ethyl)piperazin-1-yl)-3-(2-methylpyrimidin-5-yl)-1,2,4-thiadiazole] to `COc1cc(CCN2CCN(c3nc(-c4ccc(C)nc4)ns3)CC2)ccn1` [Example 97, 1-[2-(2-Methoxy-pyridin-4-yl)-ethyl]-4-[3-(6-methyl-pyridin-3-yl)-[1,2,4]thiadiazol-5-yl]-piperazine], the EC50 falls from 0.152 µM to 0.0513 µM (3-fold).

Going from `COc1ccc(CCN2CCN(c3nc(-c4ccc(Cl)cc4)ns3)CC2)cc1F` [Example 80, 1-[3-(4-Chloro-phenyl)-[1,2,4]thiadiazol-5-yl]-4-[2-(3-fluoro-4-methoxy-phenyl)-ethyl]-piperazine] to `COc1ccccc1CCCN1CCN(c2nc(-c3ccc(Cl)cc3)ns2)CC1` [Example 39, 1-[3-(4-Chloro-phenyl)-[1,2,4]thiadiazol-5-yl]-4-[3-(2-methoxy-phenyl)-propyl]-piperazine], the EC50 rises from 0.0027 µM to 0.0435 µM (16-fold). The first is the more potent here.

For `COc1cc(CCN2CCN(c3nc(-c4ccnc(Cl)c4)ns3)CC2)ccn1` [Example 168, 3-(2-chloropyridin-4-yl)-5-(4-(2-(2-methoxypyridin-4-yl)ethyl)piperazin-1-yl)-1,2,4-thiadiazole], the EC50 was 0.0015 µM.
